SMILES strings stand for the structures.

Data on four compounds can be found in patent publication US20200131144A1, “AMINE OR (THIO)AMIDE CONTAINING LXR MODULATORS” (Phenex-FXR GmbH, priority 2017, published 2020).

Experiment [1] concerns the target T1, LXRα ligand-binding domain (LBD) (Homo sapiens, UniProt Q13133).
T1 construct: expressed in transfected cells; host or cells: HEK293
T1 sequence (Q13133 155-447): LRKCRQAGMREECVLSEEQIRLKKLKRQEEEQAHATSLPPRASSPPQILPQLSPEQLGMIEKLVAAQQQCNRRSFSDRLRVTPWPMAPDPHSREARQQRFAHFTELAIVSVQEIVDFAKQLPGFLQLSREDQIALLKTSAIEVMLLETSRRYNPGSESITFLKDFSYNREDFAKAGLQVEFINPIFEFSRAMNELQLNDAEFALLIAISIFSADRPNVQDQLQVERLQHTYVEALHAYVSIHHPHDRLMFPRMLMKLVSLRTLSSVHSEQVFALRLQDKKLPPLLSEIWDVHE
Briefly: LXR Gal4 reporter transient transfection assay, mammalian two-hybrid, LBD-M2H Gal4α. Particulars: HEK293 cells; inverse agonist unless *. It is filed as cell-based. On the procedure: The tested compounds were usually dissolved, tested and stored as 20 mM stock solutions in DMSO. Since sulfonyl acetic acid derivatives tend to decarboxylate under these conditions, these stock solutions were prepared, tested and stored as 20 mM DMSO stock solutions containing 100 mM trifluoroacetic acid (5 equivalents). Sulfonyl acetic acid derivatives are shelf stable as solid at rt for long time as reported by Griesbrecht et al. (Synlett 2010:374) or Faucher et al. (J. Med. Chem. 2004; 47:18).
LXR Gal4 Reporter Transient Transfection Assays
LXRα and LXRβ activity status was determined via detection of interaction with coactivator and corepressor proteins in mammalian two-hybrid experiments (M2H). For this, via transient transfection the full length (FL) proteins of LXRα (amino acids 1-447; NP005684; SEQ ID NO:1) or LXRβ-(amino acids 1-461; NP009052; SEQ ID NO:2) or the ligand-binding domains (LBD) of LXRα (amino acids 155-447 SEQ ID NO:3) or LXR (amino acids 156-461; SEQ ID NO:4) were expressed from pCMV-AD (Stratagene) as fusions to the transcriptional activation domain of NFkB. As cofactors, domains of either the steroid receptor coactivator 1 (SRC1; amino acids 552-887; SEQ ID NO:5) or of the corepressor NCoR (amino acids 1906-2312; NP006302; SEQ ID NO:6) were expressed as fusions to the DNA binding domain of the yeast transcription factor GAL4 (from pCMV-BD; Stratagene). Interaction was monitored via activation of a coexpressed Firefly Luciferase Reporter gene under control of a promoter containing repetitive GAL4 response elements (vector pFRLuc; Stratagene). Transfection efficiency was controlled via cotransfection of constitutively active pRL-CMV Renilla reniformis luciferase reporter (Promega). HEK293 cells were grown in minimum essential medium (MEM) with 2 mM L-glutamine and Earle's balanced salt solution supplemented with 8.3% fetal bovine serum, 0.1 mM non-essential amino acids, 1 mM sodium pyruvate, at 37° C. in 5% CO2. 3.5×10^4 cells/well were plated in 96-well cell culture plates in growth medium supplemented with 8.3% fetal bovine serum for 16-20 h to—90% confluency. For transfection, medium was taken off and LXR and cofactor expressing plasmids as well as the reporter plasmids are added in 30 μL OPTIMEM/well including polyethylene-imine (PEI) as vehicle. Typical amounts of plasmids transfected/well: pCMV-AD-LXR (5 ng), pCMV-BD-cofactor (5 ng), pFR-Luc (100 ng), pRL-CMV (0.5 ng). Compound stocks were prepared in DMSO, prediluted in MEM to a total volume of 120 μL, and added 4 h after addition of the transfection mixture (final vehicle concentration not exceeding 0.2%). Cells were incubated for additional 16 h, lysed for 10 min in 1×Passive Lysis Buffer (Promega) and Firefly and Renilla luciferase activities were measured sequentially in the same cell extract using buffers containing D-luciferine and coelenterazine, respectively. Measurements of luminescence were done in a BMG-luminometer.

Experiment [2] has as its target T2, LXRβ ligand-binding domain (LBD) (Homo sapiens, UniProt P55055, INS174Q).
T2 construct: or LXR (amino acids 156-461); expressed in transfected cells; host or cells: HEK293
T2 sequence (P55055 with tags, fused parts or gaps INS174Q limits assumed): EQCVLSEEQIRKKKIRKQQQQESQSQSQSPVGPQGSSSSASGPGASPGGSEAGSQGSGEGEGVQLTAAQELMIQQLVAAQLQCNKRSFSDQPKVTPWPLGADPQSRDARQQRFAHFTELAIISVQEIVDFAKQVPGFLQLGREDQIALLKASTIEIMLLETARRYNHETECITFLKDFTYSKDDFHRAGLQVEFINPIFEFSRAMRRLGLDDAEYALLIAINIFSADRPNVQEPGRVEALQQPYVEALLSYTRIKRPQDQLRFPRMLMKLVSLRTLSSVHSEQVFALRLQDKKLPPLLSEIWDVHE
The experiment can be described thus: LXR Gal4 reporter transient transfection assay, mammalian two-hybrid, LBD-M2H Gal4β. Format: cell-based. Particulars: HEK293 cells; inverse agonist unless *. An outline of the steps: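 Mammalian two-hybrid read-out: interaction of LXRα or LXRβ (full length or ligand-binding domain, NFkB activation-domain fusions) with GAL4-fused SRC1 or NCoR domains drives GAL4-responsive firefly luciferase in HEK293 cells, normalised by Renilla cotransfection. Compounds given 4 h after transfection, ≤0.2% vehicle, cells lysed after 16 h.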

As for `Cc1cc(C)c(C(=O)N(Cc2ccc(-c3cccc(C(C)(C)C(=O)O)c3)cc2)Cc2ccc(C(F)(F)F)o2)c(C)c1` [10/1], the EC50 was 100 to 1000 nM in experiment [1] and < 100 nM in experiment [2].
Taken in the same sequence, the figures for `Cc1ccc2ccccc2c1C(=O)N(Cc1ccc(-c2cc(F)c(CO)c(S(=O)(=O)CC(=O)O)c2)cc1)Cc1ccc(C(F)(F)F)o1` [22/8] were < 100 nM and < 100 nM.
As for `Cc1ccc2ccccc2c1C(=O)N(Cc1ccc(-c2cccc(S(=O)(=O)CC(=O)O)c2)cc1)Cc1ccc(C(F)(F)F)o1` [Example 9], the EC50 in experiment [1] and in experiment [2] was 100 to 1000 nM throughout.
On to `Cc1ccc2ccccc2c1CN(Cc1ccc(-c2cccc(C(C)(C)C(=O)O)c2)cc1)Cc1ccc(C(F)(F)F)o1` [Example 24, 2-Methyl-2-(4′-((((2-methylnaphthalen-1-yl)methyl)((5-(trifluoromethyl)furan-2-yl)methyl)amino)methyl)-[1,1′-biphenyl]-3-yl)propanoic acid], for which the concentration for a half-maximal effect (EC50) in experiment [1] and in experiment [2] was < 100 nM each time.
